Like-named read-outs stand apart in the source and are kept apart here.
Assays:
human recombinant GR = target: T1, human recombinant GR (Homo sapiens, UniProt P04150); assay: Human glucocorticoid receptor (GR) fluorescence polarisation (FP) binding assay
T1 construct: purchased PanVera P2812
T1 sequence (P04150 1-777): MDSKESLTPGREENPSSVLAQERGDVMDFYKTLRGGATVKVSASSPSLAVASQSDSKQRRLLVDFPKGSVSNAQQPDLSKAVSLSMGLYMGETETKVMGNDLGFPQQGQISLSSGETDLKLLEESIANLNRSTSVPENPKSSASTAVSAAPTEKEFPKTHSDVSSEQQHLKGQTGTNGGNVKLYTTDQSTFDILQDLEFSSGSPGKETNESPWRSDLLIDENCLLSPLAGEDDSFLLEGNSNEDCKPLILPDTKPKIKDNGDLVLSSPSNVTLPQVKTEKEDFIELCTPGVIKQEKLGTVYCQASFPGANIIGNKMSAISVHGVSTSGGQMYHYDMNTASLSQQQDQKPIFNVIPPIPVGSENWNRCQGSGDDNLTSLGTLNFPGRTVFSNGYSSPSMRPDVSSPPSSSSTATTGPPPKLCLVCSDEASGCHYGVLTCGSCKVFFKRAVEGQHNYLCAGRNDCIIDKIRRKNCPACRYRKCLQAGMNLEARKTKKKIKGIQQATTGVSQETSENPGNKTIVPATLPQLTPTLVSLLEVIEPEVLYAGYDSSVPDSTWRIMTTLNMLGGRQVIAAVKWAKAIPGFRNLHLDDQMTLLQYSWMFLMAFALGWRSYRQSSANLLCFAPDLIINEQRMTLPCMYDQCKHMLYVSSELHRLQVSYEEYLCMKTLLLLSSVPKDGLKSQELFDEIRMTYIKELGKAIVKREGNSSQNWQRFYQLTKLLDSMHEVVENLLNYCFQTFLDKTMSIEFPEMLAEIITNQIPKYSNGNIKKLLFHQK
In short: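 Competition fluorescence polarisation: 0.5 nM GS Red labelled glucocorticoid and 1 nM recombinant human GR with 8-point half-log compound series, 1% DMSO, 4 h room temperature, potassium phosphate pH 7.4 buffer with molybdate, EDTA, DTT. Affinity derived from the drop in polarisation, normalised to blank wells.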

[1] = system: induction of TAT by dexamethasone in HepG2 cells; assay: HepG2 tyrosine aminotransferase (TAT) assay; format: cell-based, human
[2] = human recombinant GR, fluorescence polarisation binding assay, read-out: GR binding
[3] = HepG2 cells, challenge of 100 nM dexamethasone, Ki from IC50 by Cheng and Prusoff equation

Row | SMILES | Ki (human recombinant GR; [2]) [nM] | Ki [1, 3] [nM] | Ki (human recombinant GR) [nM] | Ki [1] [nM]
1 | O=C(c1cocn1)[C@]12Cc3cnn(-c4ccc(F)cc4)c3C=C1CCN(S(=O)(=O)c1ccc(C(F)(F)F)cc1)C2 [Example 1E, (R)-(1-(4-fluorophenyl)-6-((4-(trifluoromethyl)phenyl)sulfonyl)-4,4a,5,6,7,8-hexahydro-1H-pyrazolo[3,4-g]isoquinolin-4a-yl)(oxazol-4-yl)methanone] |  | 20 to 100 | < 0.5 | 
2 | CCn1nccc1S(=O)(=O)N1CCC2=Cc3c(cnn3-c3ccc(F)cc3)C[C@]2(C(=O)c2nccs2)C1 [Example 12W, (R)-(6-((1-ethyl-1H-pyrazol-5-yl)sulfonyl)-1-(4-fluorophenyl)-4,4a,5,6,7,8-hexahydro-1H-pyrazolo[3,4-g]isoquinolin-4a-yl)(thiazol-2-yl)methanone] | > 1 | ≥ 100 |  | 
3 | Cn1ccc(S(=O)(=O)N2CCC3=Cc4c(cnn4-c4ccc(Cl)cc4)C[C@]3(C(=O)c3cc(C(F)(F)F)ccn3)C2)n1 [Example 11BR, (R)-(1-(4-chlorophenyl)-6-((1-methyl-1H-pyrazol-3-yl)sulfonyl)-4,4a,5,6,7,8-hexahydro-1H-pyrazolo[3,4-g]isoquinolin-4a-yl)(4-(trifluoromethyl)pyridin-2-yl)methanone] | 0.5 to 1 | < 20 |  | 
4 | CCn1cc(S(=O)(=O)N2CCC3=Cc4c(cnn4-c4ccc(F)cc4)C[C@]3(C(=O)c3cc(C(F)(F)F)ccn3)C2)nn1 [Example 11CM, (R)-(6-((1-ethyl-1H-1,2,3-triazol-4-yl)sulfonyl)-1-(4-fluorophenyl)-4,4a,5,6,7,8-hexahydro-1H-pyrazolo[3,4-g]isoquinolin-4a-yl)(4-(trifluoromethyl)pyridin-2-yl)methanone] | < 0.5 | < 20 |  | 
5 | O=C(c1ccccn1)[C@]12Cc3cnn(-c4ccc(F)cc4)c3C=C1CCN(S(=O)(=O)c1ccc(F)c(F)c1)C2 [Example 11P, (R)-(6-((3,4-difluorophenyl)sulfonyl)-1-(4-fluorophenyl)-4,4a,5,6,7,8-hexahydro-1H-pyrazolo[3,4-g]isoquinolin-4a-yl)(pyridin-2-yl)methanone] |  |  | < 0.5 | < 20
6 | CCn1cc(S(=O)(=O)N2CCC3=Cc4c(cnn4-c4ccc(F)cc4)C[C@]3(C(=O)c3cc(C)ccn3)C2)cn1 [Example 11AH, (R)-(6-((1-ethyl-1H-pyrazol-4-yl)sulfonyl)-1-(4-fluorophenyl)-4,4a,5,6,7,8-hexahydro-1H-pyrazolo[3,4-g]isoquinolin-4a-yl)(4-methylpyridin-2-yl)methanone] | < 0.5 | < 20 |  | 
7 | Cc1ccnc(C(=O)[C@]23Cc4cnn(-c5ccc(F)cc5)c4C=C2CCN(S(=O)(=O)c2cn(C)cn2)C3)c1 [Example 11V, (R)-(1-(4-fluorophenyl)-6-((1-methyl-1H-imidazol-4-yl)sulfonyl)-4,4a,5,6,7,8-hexahydro-1H-pyrazolo[3,4-g]isoquinolin-4a-yl)(4-methylpyridin-2-yl)methanone] | < 0.5 | 20 to 100 |  | 
8 | O=C(c1ccco1)[C@]12Cc3cnn(-c4ccc(F)cc4)c3C=C1CCN(S(=O)(=O)c1ccc(C(F)(F)F)cc1)C2 [Example 1G, (R)-(1-(4-fluorophenyl)-6-((4-(trifluoromethyl)phenyl)sulfonyl)-4,4a,5,6,7,8-hexahydro-1H-pyrazolo[3,4-g]isoquinolin-4a-yl)(furan-2-yl)methanone] |  |  | < 0.5 | 20 to 100
9 | O=C(c1nccs1)[C@]12Cc3cnn(-c4ccc(F)cc4)c3C=C1CCN(S(=O)(=O)c1ccc(N3CC[C@@H](F)C3)nc1)C2 [Example 9, ((R)-1-(4-fluorophenyl)-6-((6-((R)-3-fluoropyrrolidin-1-yl)pyridin-3-yl)sulfonyl)-4,4a,5,6,7,8-hexahydro-1H-pyrazolo[3,4-g]isoquinolin-4a-yl)(thiazol-2-yl)methanone] | < 0.5 | ≥ 100 |  | 
10 | Cc1nc(S(=O)(=O)N2CCC3=Cc4c(cnn4-c4ccc(F)cc4)C[C@]3(C(=O)c3cc(C(F)(F)F)ccn3)C2)cn1C [Example 11BV, (R)-(6-((1,2-dimethyl-1H-imidazol-4-yl)sulfonyl)-1-(4-fluorophenyl)-4,4a,5,6,7,8-hexahydro-1H-pyrazolo[3,4-g]isoquinolin-4a-yl)(4-(trifluoromethyl)pyridin-2-yl)methanone] | < 0.5 | < 20 |  | 
11 | O=C(c1ccccn1)[C@]12Cc3cnn(-c4ccc(F)cc4)c3C=C1CCN(S(=O)(=O)c1cn[nH]c1)C2 [Example 11BS, (R)-(6-((1H-pyrazol-4-yl)sulfonyl)-1-(4-fluorophenyl)-4,4a,5,6,7,8-hexahydro-1H-pyrazolo[3,4-g]isoquinolin-4a-yl)(pyridin-2-yl)methanone] | 0.5 to 1 | 20 to 100 |  | 
12 | Cc1ccc(S(=O)(=O)N2CCC3=Cc4c(cnn4-c4ccc(F)cc4)C[C@]3(C(=O)c3nccn3C)C2)cc1 [Example 13, (R)-(1-(4-fluorophenyl)-6-tosyl-4,4a,5,6,7,8-hexahydro-1H-pyrazolo [3,4-g]isoquinolin-4a-yl)(1-methyl-1H-imidazol-2-yl)methanone] | 0.5 to 1 | 20 to 100 |  | 

The next lines start with results.

Row | Ki (human recombinant GR; [2]) [nM] | SMILES | Ki [1, 3] [nM] | Ki (human recombinant GR) [nM] | Ki [1] [nM]
13 | < 0.5 | O=C(c1ccccn1)[C@]12Cc3cnn(-c4ccc(F)cc4)c3C=C1CCN(S(=O)(=O)c1cc(F)cc(F)c1)C2 [Example 11J, (R)-(6-((3,5-difluorophenyl)sulfonyl)-1-(4-fluorophenyl)-4,4a,5,6,7,8-hexahydro-1H-pyrazolo[3,4-g]isoquinolin-4a-yl)(pyridin-2-yl)methanone] | < 20 |  | 
14 | < 0.5 | Cc1ccnc(C(=O)[C@]23Cc4cnn(-c5ccc(F)cc5)c4C=C2CCN(S(=O)(=O)c2ccnc(C(F)(F)F)c2)C3)c1 [Example 11BB, (R)-(1-(4-fluorophenyl)-6-((2-(trifluoromethyl)pyridin-4-yl)sulfonyl)-4,4a,5,6,7,8-hexahydro-1H-pyrazolo[3,4-g]isoquinolin-4a-yl)(4-methylpyridin-2-yl)methanone] | < 20 |  | 
15 | < 0.5 | Cc1ccnc(C(=O)[C@]23Cc4cnn(-c5ccc(F)cc5)c4C=C2CCN(S(=O)(=O)c2cnn(C)c2C)C3)c1 [Example 11AI, (R)-(6-((1,5-dimethyl-1H-pyrazol-4-yl)sulfonyl)-1-(4-fluorophenyl)-4,4a,5,6,7,8-hexahydro-1H-pyrazolo[3,4-g]isoquinolin-4a-yl)(4-methylpyridin-2-yl)methanone] | < 20 |  | 
16 | < 0.5 | O=C(c1ccccn1)[C@]12Cc3cnn(-c4ccc(F)cc4)c3C=C1CCN(S(=O)(=O)c1cccc(C(F)(F)F)n1)C2 [Example 11AD, (R)-(1-(4-fluorophenyl)-6-((6-(trifluoromethyl)pyridin-2-yl)sulfonyl)-4,4a,5,6,7,8-hexahydro-1H-pyrazolo[3,4-g]isoquinolin-4a-yl)(pyridin-2-yl)methanone] | < 20 |  | 
17 | < 0.5 | Cc1cccc(S(=O)(=O)N2CCC3=Cc4c(cnn4-c4ccc(F)cc4)C[C@]3(C(=O)c3nccs3)C2)c1 [Example 12A, (R)-(1-(4-fluorophenyl)-6-(m-tolylsulfonyl)-4,4a,5,6,7,8-hexahydro-1H-pyrazolo[3,4-g]isoquinolin-4a-yl)(thiazol-2-yl)methanone] | < 20 |  | 
18 | < 0.5 | O=C(c1ccccn1)[C@]12Cc3cnn(-c4ccc(F)cc4)c3C=C1CCN(S(=O)(=O)c1cccc(F)c1)C2 [Example 5G, (R)-(1-(4-fluorophenyl)-6-((3-fluorophenyl)sulfonyl)-4,4a,5,6,7,8-hexahydro-1H-pyrazolo[3,4-g]isoquinolin-4a-yl)(pyridin-2-yl)methanone] | < 20 |  | 
19 | < 0.5 | O=C(c1ccccn1)[C@]12Cc3cnn(-c4ccc(F)cc4)c3C=C1CCN(S(=O)(=O)c1cccc(OC(F)F)c1)C2 [Example 11L, (R)-(6-((3-(difluoromethoxy)phenyl)sulfonyl)-1-(4-fluorophenyl)-4,4a,5,6,7,8-hexahydro-1H-pyrazolo[3,4-g]isoquinolin-4a-yl)(pyridin-2-yl)methanone] | < 20 |  | 
20 | < 0.5 | O=C(c1ccccn1)[C@]12Cc3cnn(-c4ccc(F)cc4)c3C=C1CCN(S(=O)(=O)c1ccc(N3CCOCC3)nc1)C2 [Example 3, (R)-(1-(4-fluorophenyl)-6-((6-morpholinopyridin-3-yl)sulfonyl)-4,4a,5,6,7,8-hexahydro-1H-pyrazolo[3,4-g]isoquinolin-4a-yl)(pyridin-2-yl)methanone] | 20 to 100 |  | 
21 | < 0.5 | CCCn1cc(S(=O)(=O)N2CCC3=Cc4c(cnn4-c4ccc(F)cc4)C[C@]3(C(=O)c3cscn3)C2)nn1 [Example 11CS, (R)-(1-(4-fluorophenyl)-6-((1-propyl-1H-1,2,3-triazol-4-yl)sulfonyl)-4,4a,5,6,7,8-hexahydro-1H-pyrazolo[3,4-g]isoquinolin-4a-yl)(thiazol-4-yl)methanone] | < 20 |  | 
